Test results as given in PubChem BioAssay (NCI).
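Interpolation was linear, between the two tested concentrations surrounding the appropriate level; five concentrations were tested over 48 hours in 96-well plates. Abbreviation: GI50, concentration required for 50% inhibition of growth. TGI: total growth inhibition.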

Legend:
Test in all cases: growth of human tumour cells (NCI), 48 h
ACHN renal = system: ACHN renal
HCT-15 colon = system: HCT-15 colon
IGROV1 ovarian = system: IGROV1 ovarian
NCI-H460 lung = system: NCI-H460 lung
NCI-H522 lung = system: NCI-H522 lung
OVCAR-3 ovarian = system: OVCAR-3 ovarian
SNB-19 CNS = system: SNB-19 CNS
SR leukemia = system: SR leukemia
TK-10 renal = system: TK-10 renal
U251 CNS = system: U251 CNS

Row | Structure (SMILES) | GI50 (ACHN renal) [µM] | TGI (ACHN renal) [µM] | GI50 (HCT-15 colon) [µM] | TGI (HCT-15 colon) [µM] | GI50 (IGROV1 ovarian) [µM] | TGI (IGROV1 ovarian) [µM] | GI50 (NCI-H460 lung) [µM] | TGI (NCI-H460 lung) [µM] | GI50 (NCI-H522 lung) [µM] | TGI (NCI-H522 lung) [µM] | GI50 (OVCAR-3 ovarian) [µM] | TGI (OVCAR-3 ovarian) [µM] | GI50 (SNB-19 CNS) [µM] | TGI (SNB-19 CNS) [µM] | GI50 (SR leukemia) [µM] | TGI (SR leukemia) [µM] | GI50 (TK-10 renal) [µM] | TGI (TK-10 renal) [µM] | GI50 (U251 CNS) [µM] | TGI (U251 CNS) [µM]
1 | Cn1cc(-c2csc(-c3ccc(Cl)cc3)n2)c2cccnc21 | 14.1 | 29.2 | 12.2 | 29.3 | 22.3 | > 100 | 16 | 34.4 | 13.6 | 38.2 | 17.1 | 35.6 | 13.8 | 30.2 | 13.3 | 59.6 | 12.4 | 31.1 | 14.6 | 29.4
2 | COc1ccc2c(CN3CCCC[C@H]3O)cc3cc4c(cc3c2c1)OCO4 | 0.222 | 2.36 | 0.369 | 10.6 | 0.368 | 9.3 | 0.295 | 10.4 | 0.214 | 0.559 | 0.409 | 3.4 | 0.445 | 7.45 | 0.195 | 0.854 | 0.702 | 6.97 | 0.422 | 10.8
3 | COc1cc(C2CC(c3ccc(Cl)cc3)=NN2C(C)=O)ccc1Oc1ccnc2cc(Cl)ccc12 (stereo unspecified) |  |  | > 100 | > 100 | > 100 | > 100 |  |  |  |  |  |  | > 100 | > 100 | > 100 | > 100 |  |  | 3.09 | > 100
4 | O=C(O)C1CC2C=CCC(C2)C1 (stereo unspecified) |  | > 100 |  | > 100 |  | > 100 |  | > 100 |  | > 100 |  | > 100 |  | > 100 |  | > 100 |  | > 100 |  | > 100
5 | CCOC(=O)NN1C(=O)C(=P(c2ccccc2)(c2ccccc2)c2ccccc2)C(C(=O)OC)=C1C |  | > 100 |  | > 100 |  | > 100 |  | > 100 |  | > 100 |  | > 100 |  | > 100 |  | > 100 |  | > 100 |  | > 100
6 | COc1ccc(C(=O)Cn2c(C(=O)c3ccc(Cl)cc3)nc(-c3ccccc3)c2-c2ccccc2)cc1 | 34.3 | > 100 | > 100 | > 100 | 67.1 | > 100 | > 100 | > 100 | > 100 | > 100 | > 100 | > 100 | 78.3 | > 100 | > 100 | > 100 | 46.5 | > 100 | 73 | > 100
7 | CC(C)(O)c1cc(Nc2cc(Oc3cn(C4CC4)nc3C3CCOCC3)ccn2)ccn1 | > 100 | > 100 | > 100 | > 100 | 62.4 | > 100 | > 100 | > 100 | 52.2 | > 100 | 98.1 | > 100 | > 100 | > 100 | > 100 | > 100 | 69.8 | > 100 | > 100 | > 100
8 | O=C(O)C(Cc1ccccc1)N1C(=O)/C(=C/C(Cl)=C/c2ccc([N+](=O)[O-])cc2)SC1=S (stereo unspecified) | 1.8 | 3.3 | 1.92 | 4.58 |  |  |  |  | 1.72 | 4.47 | 1.76 | 3.51 |  |  | 2.45 | > 100 |  |  | 1.72 | 3.52
9 | Nc1ccc(C(=O)N/C(=C\c2ccc3c(c2)OCO3)c2nc3ccccc3s2)cc1 |  | 27.2 |  | 23.4 |  | 31.7 |  |  |  | 28.5 |  | 30.8 |  | 28.7 |  | 53.4 |  | 34 |  | 26.4
10 | COC(=O)C1=C(O)c2cc(OC)c(OC)c(OC)c2C(c2ccc3c(c2)OCO3)[C@@H]1C(=O)OC (stereo partly specified) |  | > 100 |  | > 100 |  | > 100 |  | > 100 |  |  |  | 5.3 |  |  |  | > 100 |  | > 100 |  | > 100
11 | COC(=O)N[C@@H](C)CNc1nccc(-c2cn(C(C)C)nc2-c2cc(Cl)cc(NS(C)(=O)=O)c2F)n1 | 1.03 | > 100 | 7.46 | > 100 | 0.678 | > 100 |  |  | > 55.2 | > 100 | 62.8 | > 100 | > 100 | > 100 | 25.6 | > 84.7 | > 100 | > 100 | 59.5 | > 100
12 | Fc1ccc(-c2ncn(C3CCNCC3)c2-c2ccnc(Oc3ccc(Cl)cc3)n2)cc1 | 4.19 | 10.6 | 4.24 | 9.46 | 4.62 | 13.3 | 3.79 | 7.49 | 4.49 | 9.34 | 4.09 | 7.9 | 6.57 | > 18.7 |  |  | 3.97 | 7.97 | 3.66 | 7.24
13 | O=C(CC1(O)CCCCC1)OC1CCCC1 |  | > 100 |  | > 100 |  | > 100 |  | > 100 |  | > 100 |  | > 100 |  | > 100 |  |  |  | > 100 |  | > 100
14 | COc1ccc(CN2c3ccccc3Sc3ccccc32)cc1O | 1.56 | 21.8 | 0.369 | 11.8 | 1.93 | 21.3 | 0.444 | 13.4 | 0.241 | 0.781 |  |  | 0.771 | 26.9 | 0.407 | 30.7 | 2.52 | 20.5 | 0.427 | 14.5
15 | C[C@@H]1CC2(C[C@@H](C)C3[C@@H](CC4(C)CCCC5C6=CC(O)(CC[C@]34C)OC6=CC(=O)OC5(C)C)O2)OC1=O (stereo partly specified) |  | > 100 |  | > 100 |  | > 100 |  |  |  | > 100 |  | > 100 |  | > 100 |  | > 100 |  | > 100 |  | > 100
